Experimental data: patent US11345681B1, “Inhibitors of fibroblast growth factor receptor kinases” (Kinnate Biopharma Inc., priority 2020, dated 2022)

Target: Wild type FGFR2 (Homo sapiens (Human), UniProt P21802)
Assay: FGFR2 kinase assay (fluorescence-based microfluidic mobility shift assay)
Format: biochemical
Settings: wild type FGFR2 0.06 nM, 100 μM ATP, 80 minutes at room temperature; class symbols

Chain of Wild type FGFR2 (P21802 22-821): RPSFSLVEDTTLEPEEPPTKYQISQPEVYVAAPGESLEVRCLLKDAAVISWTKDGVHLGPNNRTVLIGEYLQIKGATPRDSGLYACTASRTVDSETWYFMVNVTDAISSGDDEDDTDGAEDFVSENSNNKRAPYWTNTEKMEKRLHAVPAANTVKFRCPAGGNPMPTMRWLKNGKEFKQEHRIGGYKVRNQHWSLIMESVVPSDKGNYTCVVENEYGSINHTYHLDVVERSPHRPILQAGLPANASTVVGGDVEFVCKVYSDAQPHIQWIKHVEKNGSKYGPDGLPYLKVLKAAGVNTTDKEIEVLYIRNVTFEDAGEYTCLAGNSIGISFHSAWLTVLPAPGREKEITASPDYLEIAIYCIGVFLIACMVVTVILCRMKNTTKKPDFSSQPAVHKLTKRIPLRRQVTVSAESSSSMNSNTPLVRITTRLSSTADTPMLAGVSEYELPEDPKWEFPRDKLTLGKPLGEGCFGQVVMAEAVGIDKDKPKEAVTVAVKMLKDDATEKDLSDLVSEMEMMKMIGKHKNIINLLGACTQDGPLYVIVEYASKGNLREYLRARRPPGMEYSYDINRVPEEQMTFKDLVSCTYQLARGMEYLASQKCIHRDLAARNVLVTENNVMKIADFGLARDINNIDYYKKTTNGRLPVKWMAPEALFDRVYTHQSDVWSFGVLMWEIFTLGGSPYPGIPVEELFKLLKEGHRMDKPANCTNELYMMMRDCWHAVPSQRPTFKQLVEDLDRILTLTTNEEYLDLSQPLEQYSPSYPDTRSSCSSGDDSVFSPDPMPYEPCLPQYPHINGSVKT

| IC50 [nM] | SMILES |
| --- | --- |
| 100 to 1000 | C=CC(=O)N1C[C@@H](n2nc(C#Cc3ccn4ncnc4c3)c(C(N)=O)c2NC)C[C@@H]1COC [Example 107, 1-[(3S,5R)-5-(Methoxymethyl)-1-(prop-2-enoyl)pyrrolidin-3-yl]-5-(methylamino)-3-(2-[[1,2,4]triazolo[1,5-c]pyridin-7-yl]ethynyl)pyrazole-4-carboxamide] |
| ≤ 100 | C=CC(=O)N1C[C@@H](n2nc(C#Cc3ccc4ocnc4c3)c(C(N)=O)c2NC)C[C@@H]1COC [Example 108, 3-[2-(1,3-Benzoxazol-5-yl)ethynyl]-1-[(3S,5R)-5-(methoxymethyl)-1-(prop-2-enoyl)pyrrolidin-3-yl]-5-(methylamino)pyrazole-4-carboxamide] |
| ≤ 100 | C=CC(=O)N1C[C@@H](n2nc(C#Cc3c(F)cc4c(ncn4CC)c3F)c(C(N)=O)c2NCC2CC2)C[C@@H]1COC [Example 109, 5-[(Cyclopropylmethyl)amino]-3-[2-(1-ethyl-4,6-difluoro-1,3-benzodiazol-5-yl)ethynyl]-1-[(3S,5R)-5-(methoxymethyl)-1-(prop-2-enoyl)pyrrolidin-3-yl]pyrazole-4-carboxamide] |
| ≤ 100 | C=CC(=O)N1C[C@@H](n2nc(C#Cc3c(F)cc4c(ncn4CC)c3F)c(C(N)=O)c2NCCCN2CCOCC2)C[C@@H]1COC [Example 111, 3-[2-(1-Ethyl-4,6-difluoro-1,3-benzodiazol-5-yl)ethynyl]-1-[(3S,5R)-5-(methoxymethyl)-1-(prop-2-enoyl)pyrrolidin-3-yl]-5-[[3-(morpholin-4-yl)propyl]amino]pyrazole-4-carboxamide] |
| ≤ 100 | C=CC(=O)N1CC[C@H](n2nc(C#Cc3c(F)cc4c(ncn4CC)c3F)c(C(N)=O)c2NCCN2CCOCC2)C1 [Example 112, 3-[2-(1-Ethyl-4,6-difluoro-1,3-benzodiazol-5-yl)ethynyl]-5-[[2-(morpholin-4-yl)ethyl]amino]-1-[(3S)-1-(prop-2-enoyl)pyrrolidin-3-yl]pyrazole-4-carboxamide] |
| ≤ 100 | C=CC(=O)N1C[C@@H](n2nc(C#Cc3cc4ncn(C)c4c(F)c3Cl)c(C(N)=O)c2NC)C[C@@H]1COC [Example 113, 3-[2-(6-chloro-7-fluoro-1-methyl-1,3-benzodiazol-5-yl)ethynyl]-1-[(3S,5R)-5-(methoxymethyl)-1-(prop-2-enoyl)pyrrolidin-3-yl]-5-(methylamino)pyrazole-4-carboxamide] |
| ≤ 100 | C=CC(=O)N1C[C@@H](n2nc(C#Cc3cc4ncoc4cc3F)c(C(N)=O)c2NC)C[C@@H]1COC [Example 115, 3-[2-(6-Fluoro-1,3-benzoxazol-5-yl)ethynyl]-1-[(3S,5R)-5-(methoxymethyl)-1-(prop-2-enoyl)pyrrolidin-3-yl]-5-(methylamino)pyrazole-4-carboxamide] |
| ≤ 100 | C=CC(=O)N1C[C@@H](n2nc(C#Cc3c(F)cc4c(ncn4CC)c3F)c(C(N)=O)c2NCCO)C[C@@H]1COC [Example 116, 3-[2-(1-Ethyl-4,6-difluoro-1,3-benzodiazol-5-yl)ethynyl]-5-[(2-hydroxyethyl)amino]-1-[(3S,5R)-5-(methoxymethyl)-1-(prop-2-enoyl)pyrrolidin-3-yl]pyrazole-4-carboxamide] |
| ≤ 100 | C=CC(=O)N1C[C@@H](n2nc(C#Cc3c(F)cc4c(ncn4CC)c3F)c(C(N)=O)c2NCCOC)C[C@@H]1COC [Example 117, 3-[2-(1-Ethyl-4,6-difluoro-1,3-benzodiazol-5-yl)ethynyl]-5-[(2-methoxyethyl)amino]-1-[(3S,5R)-5-(methoxymethyl)-1-(prop-2-enoyl)pyrrolidin-3-yl]pyrazole-4-carboxamide] |
| ≤ 100 | C=CC(=O)N1CC[C@H](n2nc(C#Cc3c(F)cc4c(ncn4CC)c3F)c(C(N)=O)c2NCC2CC2)C1 [Example 118, 5-[(Cyclopropylmethyl)amino]-3-[2-(1-ethyl-4,6-difluoro-1,3-benzodiazol-5-yl)ethynyl]-1-[(3S)-1-(prop-2-enoyl)pyrrolidin-3-yl]pyrazole-4-carboxamide] |
| ≤ 100 | C=CC(=O)N1CC[C@H](n2nc(C#Cc3c(F)cc4c(ncn4CC)c3F)c(C(N)=O)c2NCCOC)C1 [Example 119, 3-[2-(1-Ethyl-4,6-difluoro-1,3-benzodiazol-5-yl)ethynyl]-5-[(2-methoxyethyl)amino]-1-[(3S)-1-(prop-2-enoyl)pyrrolidin-3-yl]pyrazole-4-carboxamide] |
| ≤ 100 | C=CC(=O)N1CC[C@H](n2nc(C#Cc3c(F)cc4c(ncn4CC)c3F)c(C(N)=O)c2NCCCN2CCOCC2)C1 [Example 120, 3-[2-(1-ethyl-4,6-difluoro-1,3-benzodiazol-5-yl)ethynyl]-5-[[3-(morpholin-4-yl)propyl]amino]-1-[(3S)-1-(prop-2-enoyl)pyrrolidin-3-yl]pyrazole-4-carboxamide] |

Continued, molecule first:

| SMILES | IC50 [nM] |
| --- | --- |
| C=CC(=O)N1C[C@@H](n2nc(C#Cc3cc4c(cc3Cl)ncn4C(F)F)c(C(N)=O)c2NC)C[C@@H]1COC [Example 93, 3-[2-[6-Chloro-3-(difluoromethyl)-1,3-benzodiazol-5-yl]ethynyl]-1-[(3S,5R)-5-(methoxymethyl)-1-(prop-2-enoyl)pyrrolidin-3-yl]-5-(methylamino)pyrazole-4-carboxamide] | ≤ 100 |
| C=CC(=O)N1C[C@@H](n2nc(C#Cc3cc4ncn(C(F)F)c4cc3Cl)c(C(N)=O)c2NC)C[C@@H]1COC [Example 94, 3-[2-[6-Chloro-1-(difluoromethyl)-1,3-benzodiazol-5-yl]ethynyl]-1-[(3S,5R)-5-(methoxymethyl)-1-(prop-2-enoyl)pyrrolidin-3-yl]-5-(methylamino)pyrazole-4-carboxamide] | ≤ 100 |
| C=CC(=O)N1C[C@@H](n2nc(C#Cc3cc4c(cc3Cl)nc(C)n4C(F)F)c(C(N)=O)c2NC)C[C@@H]1COC [Example 95, 3-[2-[6-Chloro-3-(difluoromethyl)-2-methyl-1,3-benzodiazol-5-yl]ethynyl]-1-[(3S,5R)-5-(methoxymethyl)-1-(prop-2-enoyl)pyrrolidin-3-yl]-5-(methylamino)pyrazole-4-carboxamide] | 100 to 1000 |
| C=CC(=O)N1C[C@@H](n2nc(C#Cc3cc4nc(C)n(C(F)F)c4cc3Cl)c(C(N)=O)c2NC)C[C@@H]1COC [Example 96, 3-[2-[6-Chloro-1-(difluoromethyl)-2-methyl-1,3-benzodiazol-5-yl]ethynyl]-1-[(3S,5R)-5-(methoxymethyl)-1-(prop-2-enoyl)pyrrolidin-3-yl]-5-(methylamino)pyrazole-4-carboxamide] | ≤ 100 |
| C=CC(=O)N1C[C@@H](n2nc(C#Cc3c(F)cc4c(nnn4C)c3F)c(C(N)=O)c2NC)C[C@@H]1COC [Example 97, 3-[2-(4,6-Difluoro-1-methyl-1,2,3-benzotriazol-5-yl)ethynyl]-1-[(3S,5R)-5-(methoxymethyl)-1-(prop-2-enoyl)pyrrolidin-3-yl]-5-(methylamino)pyrazole-4-carboxamide] | ≤ 100 |
| C=CC(=O)N1C[C@@H](n2nc(C#Cc3cc4nc(C)[nH]c4cc3Cl)c(C(N)=O)c2NC)C[C@@H]1COC [Example 98, 3-[2-(6-Chloro-2-methyl-1R-1,3-benzodiazol-5-yl)ethynyl]-1-[(3S,5R)-5-(methoxymethyl)-1-(prop-2-enoyl)pyrrolidin-3-yl]-5-(methylamino)pyrazole-4-carboxamid] | ≤ 100 |
| C=CC(=O)N1C[C@@H](n2nc(C#Cc3c(Cl)cc4c(ncn4CC)c3F)c(C(N)=O)c2NC)C[C@@H]1COC [Example 99, 3-[2-(6-Chloro-1-ethyl-4-fluoro-1,3-benzodiazol-5-yl)ethynyl]-1-[(3S,5R)-5-(methoxymethyl)-1-(prop-2-enoyl)pyrrolidin-3-yl]-5-(methylamino)pyrazole-4-carboxamide] | ≤ 100 |
| C=CC(=O)N1C[C@@H](n2nc(C#Cc3c(Cl)cc4c(ncn4C)c3F)c(C(N)=O)c2NC)C[C@@H]1COC [Example 100, 3-[2-(6-Chloro-4-fluoro-1-methyl-1,3-benzodiazol-5-yl)ethynyl]-1-[(3S,5R)-5-(methoxymethyl)-1-(prop-2-enoyl)pyrrolidin-3-yl]-5-(methylamino)pyrazole-4-carboxamide] | ≤ 100 |
| C=CC(=O)N1C[C@@H](n2nc(C#Cc3cc4ncn(C)c4c(F)c3F)c(C(N)=O)c2NC)C[C@@H]1COC [Example 101, 3-[2-(6,7-Difluoro-1-methyl-1,3-benzodiazol-5-yl)ethynyl]-1-[(3S,5R)-5-(methoxymethyl)-1-(prop-2-enoyl)pyrrolidin-3-yl]-5-(methylamino)pyrazole-4-carboxamide] | ≤ 100 |
| C=CC(=O)N1C[C@@H](n2nc(C#Cc3nc4ccccc4s3)c(C(N)=O)c2NC)C[C@@H]1COC [Example 102, 3-[2-(1,3-Benzothiazol-2-yl)ethynyl]-1-[(3S,5R)-5-(methoxymethyl)-1-(prop-2-enoyl)pyrrolidin-3-yl]-5-(methylamino)pyrazole-4-carboxamide] | ≤ 100 |
| C=CC(=O)N1C[C@@H](n2nc(C#Cc3ccc4scnc4c3)c(C(N)=O)c2NC)C[C@@H]1COC [Example 103, 3-[2-(1,3-Benzothiazol-5-yl)ethynyl]-1-[(3S,5R)-5-(methoxymethyl)-1-(prop-2-enoyl)pyrrolidin-3-yl]-5-(methylamino)pyrazole-4-carboxamide] | ≤ 100 |
| C=CC(=O)N1C[C@@H](n2nc(C#Cc3nc4ccccc4o3)c(C(N)=O)c2NC)C[C@@H]1COC [Example 114, 3-[2-(1,3-Benzoxazol-2-yl)ethynyl]-1-[(3S,5R)-5-(methoxymethyl)-1-(prop-2-enoyl)pyrrolidin-3-yl]-5-(methylamino)pyrazole-4-carboxamide] | ≤ 100 |

Same assay, conditions: wild type FGFR2 0.06 nM, 100 μM ATP, 80 minutes at room temperature; given as numeric bound

| IC50 [nM] | SMILES |
| --- | --- |
| > 500 | C=CC(=O)N1C[C@@H](n2nc(C#Cc3cn4ccccc4n3)c(C(N)=O)c2NC)C[C@@H]1COC [Example 104, 3-(2-[Imidazo[1,2-a]pyridin-2-yl]ethynyl)-1-[(3S,5R)-5-(methoxymethyl)-1-(prop-2-enoyl)pyrrolidin-3-yl]-5-(methylamino)pyrazole-4-carboxamide] |
| > 500 | C=CC(=O)N1C[C@@H](n2nc(C#Cc3ccc4ncnn4c3)c(C(N)=O)c2NC)C[C@@H]1COC [Example 106, 1-[(3S,5R)-5-(Methoxymethyl)-1-(Prop-2-enoyl)pyrrolidin-3-yl]-5-(methylamino)-3-(2-[[1,2,4]triazolo[1,5-a]pyridin-6-yl]ethynyl)pyrazole-4-carboxamide] |
